{"source": "patent US20090156657A1", "about": "“ANTI-INFLAMMATORY COMPOSITION” (Ajinomoto Co., Inc., priority 2006, published 2009)", "tested_on": "VCAM-1 mRNA", "assay": "VCAM-1 mRNA expression in HAEC by real-time PCR", "assay_type": "cell-based, human", "details": "10 μM 24 h, 25 mM glucose 3 h, GAPDH internal standard, FIG. 3A", "description": "HAEC cells pre-treated with 10 μM of CS or FS for 24 hours were stimulated with 25 mM glucose for 3 hours, and total RNA was extracted with Isogenkit (NIPPON GENE CO., LTD.). From 1 μg of RNA, cDNA was synthesized using 100 U/mL of reverse transcriptase (TAKARA BIO INC.) and 0.1 μM of oligo (dT)-adapter (TAKARA BIO INC.) (total volume of reaction mixture; 50 μL) (42° C., 40 minutes). Real-time PCR was performed using 7300 Real Time PCR system (Applied Biosystems Japan Ltd.) and the PCR product was detected by SYBER Green I.\nPCR reaction composition (RT-PCRkit, TAKARA BIO INC.): 12.5 μL Premix Ex Taq, 2.5 μL SYBER Green I, synthesis primer, ROX reference dye, cDNA (corresponding to 20 ng of total RNA), final reaction volume; 25 μL\nPrimers having the following sequences were used.\nPCR was conducted under the following conditions.\nthermal denaturation: at 95° C. for 15 seconds, extension reaction: 40 cycles (3 seconds at 95° C., 31 seconds at 60° C.)\nExpression amounts of VCAM-1 and MCP-1 mRNA were calculated using GAPDH as the internal standard."}
{"smiles": "COc1cc(/C=C/C(=O)NCCc2c[nH]c3ccc(O)cc23)ccc1O", "note": "[FS, N-feruloyl serotonin]", "values": [{"measurement": "expression amount of VCAM-1 mRNA", "value": "significantly suppressed the increase"}]}
